Legend:
Glutamate NMDA receptor [1] = assay: Functional NMDA receptor antagonism expressed as inhibition of NMDA/glycine induced increase in cytosolic calcium in cultured rat cerebellar granule cells
Glutamate NMDA receptor [2] = assay: Potency towards NMDA receptor measured as inhibition of (+)-[3-3H]MK-801 binding from synaptic plasma membrane obtained from rat cortex

Row | Compound | IC50 (Glutamate NMDA receptor [1]) [nM] | IC50 (Glutamate NMDA receptor [2]) [nM]
1 | C[C@@H](CN)C(c1cccc(F)c1)c1cccc(F)c1 | 75 | 141
2 | NCCC(c1cccc(F)c1)c1cccc(F)c1 | 63 | 230
3 | C[C@H](CN)C(c1cccc(F)c1)c1cccc(F)c1 | 384 | 2000

— ChEMBL document CHEMBL1131782, “Synthesis, biological activity, and absolute stereochemical assignment of NPS 1392: a potent and stereoselective NMDA receptor antagonist” (Bioorg Med Chem Lett, 1999)
